Data reported in PubChem BioAssay AID1259407 (Chemical Carcinogenesis Research Information System (CCRIS), 2018).
Calls of active or inactive are those of the source. The rule behind the calls is not given here.

Tested on: CCRIS mutagenicity, Ames/micronucleus/aberration tests
Assay: CCRIS mutagenicity studies

Measured: mutagenic call

C=C(C)C(C)=O
active: Test System: Mouse lymphoma, Strain/Indicator: L5178Y (tk+/tk-), Metabolic Activation: None, Method: Suspension/plate active; positive | Test System: Mouse lymphoma, Strain/Indicator: L5178Y (tk+/tk-), Metabolic Activation: Rat, Liver, S-9, Aroclor 1254, Method: Suspension/plate active; positive
inactive: Test System: AMES SALMONELLA TYPHIMURIUM, Strain/Indicator: TA98, Metabolic Activation: HAMSTER, LIVER, S-9, AROCLOR 1254, Method: STANDARD PLATE inactive; negative | Test System: AMES SALMONELLA TYPHIMURIUM, Strain/Indicator: TA98, Metabolic Activation: NONE, Method: STANDARD PLATE inactive; negative | Test System: AMES SALMONELLA TYPHIMURIUM, Strain/Indicator: TA98, Metabolic Activation: RAT, LIVER, S-9, AROCLOR 1254, Method: STANDARD PLATE inactive; negative | Test System: AMES SALMONELLA TYPHIMURIUM, Strain/Indicator: TA100, Metabolic Activation: HAMSTER, LIVER, S-9, AROCLOR 1254, Method: STANDARD PLATE inactive; negative | Test System: AMES SALMONELLA TYPHIMURIUM, Strain/Indicator: TA100, Metabolic Activation: NONE, Method: STANDARD PLATE inactive; negative | Test System: AMES SALMONELLA TYPHIMURIUM, Strain/Indicator: TA100, Metabolic Activation: RAT, LIVER, S-9, AROCLOR 1254, Method: STANDARD PLATE inactive; negative | Test System: AMES SALMONELLA TYPHIMURIUM, Strain/Indicator: TA1535, Metabolic Activation: HAMSTER, LIVER, S-9, AROCLOR 1254, Method: STANDARD PLATE inactive; negative | Test System: AMES SALMONELLA TYPHIMURIUM, Strain/Indicator: TA1535, Metabolic Activation: NONE, Method: STANDARD PLATE inactive; negative | Test System: AMES SALMONELLA TYPHIMURIUM, Strain/Indicator: TA1535, Metabolic Activation: RAT, LIVER, S-9, AROCLOR 1254, Method: STANDARD PLATE inactive; negative | Test System: AMES SALMONELLA TYPHIMURIUM, Strain/Indicator: TA1537, Metabolic Activation: HAMSTER, LIVER, S-9, AROCLOR 1254, Method: STANDARD PLATE inactive; negative | Test System: AMES SALMONELLA TYPHIMURIUM, Strain/Indicator: TA1537, Metabolic Activation: NONE, Method: STANDARD PLATE inactive; negative | Test System: AMES SALMONELLA TYPHIMURIUM, Strain/Indicator: TA1537, Metabolic Activation: RAT, LIVER, S-9, AROCLOR 1254, Method: STANDARD PLATE inactive; negative | Test System: AMES SALMONELLA TYPHIMURIUM, Strain/Indicator: TA1538, Metabolic Activation: HAMSTER, LIVER, S-9, AROCLOR 1254, Method: STANDARD PLATE inactive; negative | Test System: AMES SALMONELLA TYPHIMURIUM, Strain/Indicator: TA1538, Metabolic Activation: NONE, Method: STANDARD PLATE inactive; negative | Test System: AMES SALMONELLA TYPHIMURIUM, Strain/Indicator: TA1538, Metabolic Activation: RAT, LIVER, S-9, AROCLOR 1254, Method: STANDARD PLATE inactive; negative
